The source of these data is patent US10125100B2, “Kinase inhibitors” (Respivert Limited, priority 2014, dated 2018).

In one test the test system is Crohn's patients. The settings on record: transient, returning to baseline by week 8; cited from earlier work.
Test [1] relates to rheumatoid arthritis patients. Conditions: cited from earlier work.
Test [2] relates to patients with severe Crohn's disease. The settings on record: over 8 weeks; cited from earlier work.
The target of a further test is GSK 3α (Homo sapiens (Human), UniProt P49840). Put plainly: GSK 3α enzyme inhibition (Method 2), Z-LYTE FRET. The test is classed as biochemical. The settings on record: read-out: IC50 Values for Enzyme Inhibition GSK3α. How it is done:
The enzyme inhibitory activities of compounds disclosed herein are determined by FRET using synthetic peptides labelled with both donor and acceptor fluorophores (Z-LYTE, Invitrogen Ltd., Paisley, UK).
The following two assay variants can be used for determination of GSK 3α inhibition.
The inhibitory activities of compounds of the invention against the GSK 3α enzyme isoform (Invitrogen), are evaluated by determining the level of activation/phosphorylation of the target peptide. The GSK3-α protein (500 ng/mL, 2.5 μL) is mixed with the test compound (2.5 μL at either 4 μg/mL, 0.4 μg/mL, 0.04 μg/mL, or 0.004 μg/mL) for 2 hr at RT. The FRET peptide (8 μM, 2.5 μL), which is a phosphorylation target for GSK3α, and ATP (40 μM, 2.5 μL) are then added to the enzyme/compound mixture and the resulting mixture incubated for 1 hr. Development reagent (protease, 5 μL) is added for 1 hr prior to detection in a fluorescence microplate reader (Varioskan® Flash, ThermoFisher Scientific).
In all cases, the site-specific protease cleaves non-phosphorylated peptide only and eliminates the FRET signal. Phosphorylation levels of each reaction are calculated using the ratio of coumarin emission (donor) over fluorescein emission (acceptor), for which high ratios indicate high phosphorylation and low ratios indicate low phosphorylation levels.
This method follows the same steps as Method 1 above, but utilises a shorter period of mixing of the test compound (105 minutes instead of 2 hours) with the GSK3-α protein. In addition, the concentrations of test compound employed are either 10 μg/mL, 1 μg/mL, 0.1 μg/mL, or 0.01 μg/mL

The next test concerns mitosis in PBMCs. Put plainly: (g) Cell mitosis assay. The class given is cell-based. Conditions: Homo sapiens, PBMC, 5 μg/mL. In a few lines: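 Healthy-donor PBMCs stimulated with 2% PHA for 48 hr, then exposed to test compounds at varying concentrations for 20 hr; demecolcine (0.1 μg/mL) added 2 hr before collection for metaphase arrest. Cells fixed/permeabilized, stained with anti-phospho-histone 3 and propidium iodide; mitotic cells counted by flow cytometry gating on lymphocytes.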

The target of another test is Syk (Homo sapiens (Human), UniProt P43405). Nature of the test: Syk enzyme inhibition, Z-LYTE FRET. The class given is biochemical. In a few lines: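 Syk or c-Src enzyme (3000 or 2000 ng/mL solutions) was preincubated 2 h at RT with compound solutions at 1, 0.1, 0.01 or 0.001 µg/mL. Z-LYTE FRET peptide (8 µM solution) and ATP (800 µM solution for c-Src, 60 µM for Syk) were then added for 1 h, followed by protease development for 1 h. Phosphorylation was read as the coumarin/fluorescein emission ratio.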

In a further test the target is c-Src (Homo sapiens (Human), UniProt P12931). Put plainly: c-Src enzyme inhibition, Z-LYTE FRET. The class given is biochemical. Put shortly:
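Z-LYTE FRET peptide phosphorylation read as donor coumarin over acceptor fluorescein ratio after 1 hr protease development. Compounds (1–0.001 μg/mL) preincubated 2 hr at RT with enzyme; ATP solutions 60 μM for Syk, 800 μM for c-Src; kinase reaction 1 hr.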

Each structure is given as a SMILES string.

Chain of GSK 3α (P49840 whole entry): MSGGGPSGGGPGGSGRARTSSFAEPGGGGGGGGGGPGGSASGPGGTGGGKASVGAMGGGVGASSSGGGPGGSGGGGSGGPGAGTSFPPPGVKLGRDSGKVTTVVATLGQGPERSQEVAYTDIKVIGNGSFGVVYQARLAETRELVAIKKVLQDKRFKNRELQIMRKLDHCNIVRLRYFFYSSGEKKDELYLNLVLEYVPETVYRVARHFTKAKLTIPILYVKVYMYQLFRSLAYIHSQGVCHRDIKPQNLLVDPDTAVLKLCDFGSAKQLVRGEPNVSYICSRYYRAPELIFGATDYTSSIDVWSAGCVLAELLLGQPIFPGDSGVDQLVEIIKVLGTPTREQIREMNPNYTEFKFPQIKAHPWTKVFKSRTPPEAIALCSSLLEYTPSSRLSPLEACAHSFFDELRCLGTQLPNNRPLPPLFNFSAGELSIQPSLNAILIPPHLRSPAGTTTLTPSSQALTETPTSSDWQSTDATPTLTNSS
Chain of c-Src (P12931 whole entry, looked up): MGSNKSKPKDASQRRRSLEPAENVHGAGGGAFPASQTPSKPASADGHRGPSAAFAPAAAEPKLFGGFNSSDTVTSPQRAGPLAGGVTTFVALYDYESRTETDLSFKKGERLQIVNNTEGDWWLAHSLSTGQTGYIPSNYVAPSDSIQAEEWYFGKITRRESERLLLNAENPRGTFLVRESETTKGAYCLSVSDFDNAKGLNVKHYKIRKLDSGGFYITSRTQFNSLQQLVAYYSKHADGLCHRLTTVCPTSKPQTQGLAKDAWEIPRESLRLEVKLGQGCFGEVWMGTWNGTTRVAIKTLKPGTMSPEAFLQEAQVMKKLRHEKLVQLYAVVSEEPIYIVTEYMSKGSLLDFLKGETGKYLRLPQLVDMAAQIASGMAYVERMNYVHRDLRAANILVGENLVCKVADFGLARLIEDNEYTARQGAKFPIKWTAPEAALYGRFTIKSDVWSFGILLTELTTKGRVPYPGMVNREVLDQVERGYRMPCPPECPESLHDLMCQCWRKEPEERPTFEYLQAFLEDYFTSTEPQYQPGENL

As to `Cc1ccc(-n2nc(C(C)(C)C)cc2NC(=O)Nc2ccc(OCCN3CCOCC3)c3ccccc23)cc1` [BIRB796], the “clinical benefit, C-reactive protein levels” value in the test with Crohn's patients was “improvement in C-reactive protein levels”.
With `COc1cc(Nc2ncc(F)c(Nc3ccc4c(n3)N(COP(=O)(O)O)C(=O)C(C)(C)O4)n2)cc(OC)c1OC` [Fostamatinib], in test [1], the clinical outcome is reported as “improved clinical outcome”; the “serum levels of IL-6 and MMP-3” value is “reduced serum levels of IL-6 and MMP-3”.
Turning to `C/C(=N\N=C(N)N)c1cc(NC(=O)CCCCCCCCC(=O)Nc2cc(/C(C)=N/N=C(N)N)cc(/C(C)=N/N=C(N)N)c2)cc(/C(C)=N/N=C(N)N)c1.Cl.Cl.Cl.Cl` [CNI-1493], the clinical score result in test [2] was “significant improvement in clinical score”.
For the molecule `COc1cc(Nc2cc(Oc3ccc(NC(=O)Nc4cc(C(C)(C)C)cc(NS(C)(=O)=O)c4OC)c4ccccc34)ccn2)ccc1C(=O)NCCCN1CC[S+]([O-])CC1` [17(ag), 4-[[4-[[4-[[5-tert-butyl-3-(methanesulfonamido)-2-methoxy-phenyl]carbamoylamino]-1-naphthyl]oxy]-pyridyl]amino]-2-methoxy-N-[3-(1-oxo-1,4-thiazan-4-yl)propyl]benzamide], the IC50 stood at 2740 nM on GSK 3α, 105 nM at Syk and 17 nM at c-Src. Moreover, the inhibition at 5 µg/mL with mitosis in PBMCs was found to be 51.8%.

One may read the IC50 as the midpoint of a concentration-inhibition curve. The term inhibition denotes the percentage by which the read-out fell short of the control.
